The target of this assay is D(2) dopamine receptor (Homo sapiens, UniProt P14416).

In BindingDB's records for doi:10.1073/pnas.86.24.9762 (Oregon Health Sciences University, 1989) one finds Ki data, which are given here for one compound.

D(2) dopamine receptor, sequence (P14416 whole entry): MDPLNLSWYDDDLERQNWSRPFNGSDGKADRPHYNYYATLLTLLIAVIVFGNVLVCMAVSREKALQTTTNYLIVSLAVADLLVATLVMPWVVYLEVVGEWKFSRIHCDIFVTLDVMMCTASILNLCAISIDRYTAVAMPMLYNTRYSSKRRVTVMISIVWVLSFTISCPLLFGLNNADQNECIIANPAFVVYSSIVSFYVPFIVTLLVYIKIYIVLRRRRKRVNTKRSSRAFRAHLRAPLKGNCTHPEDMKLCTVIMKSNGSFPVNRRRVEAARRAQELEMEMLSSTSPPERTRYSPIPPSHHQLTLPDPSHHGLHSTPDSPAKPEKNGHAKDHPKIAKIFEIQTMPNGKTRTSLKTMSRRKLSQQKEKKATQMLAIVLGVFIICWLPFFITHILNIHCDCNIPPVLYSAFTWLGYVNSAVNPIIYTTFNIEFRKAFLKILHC

Compound `CN1CCN2c3ccccc3Cc3ccccc3[C@H]2C1` [MIANSERIN (+)] returned a Ki of 2.68 µM.

A word on the Ki: it is the equilibrium dissociation constant of an inhibitor or competing ligand from its target. Low readings indicate a stronger hold on the target, high ones a looser hold on the target.
